In US8802597B2, “Herbicidal pyrimidines” (E I du Pont de Nemours and Company, priority 2003, dated 2014):

Tests used:
Assay in all cases: Test C pre/postemergence
Assay type in all cases: in vivo
[1] = tested on: giant foxtail (Setaria faberii); conditions: Preemergence
How it was run: (§1)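 Rating scale 0–100: 0 means no effect, 100 complete control; taken visually 12 to 14 days post-treatment versus controls. Pre- and postemergence greenhouse applications, postemergence at 1- to 4-leaf stage, non-phytotoxic solvent with surfactant as carrier.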

[2] = tested on: crabgrass (Digitaria sanguinalis); conditions: Preemergence
How it was run: as §1

[3] = tested on: kochia (Kochia scoparia); conditions: Preemergence; for Plant response rating, Kochia: scale 0 to 100, 0 no effect, 100 complete control
How it was run: as §1

[4] = tested on: Surinam grass (Brachiaria decumbens); conditions: Preemergence, scale 0 to 100, 0 no effect, 100 complete control
How it was run: as §1

[5] = tested on: woolly cupgrass (Eriochloa villosa); conditions: Preemergence
How it was run: as §1

[6] = tested on: bermudagrass (Cynodon dactylon); conditions: Preemergence
How it was run: as §1

[7] = tested on: pigweed (Amaranthus retroflexus); conditions: Preemergence, scale 0 to 100, 0 no effect, 100 complete control
How it was run: as §1

[8] = tested on: soybean (Glycine max); conditions: Preemergence, scale 0 to 100, 0 no effect, 100 complete control
How it was run: as §1

[9] = tested on: goosegrass (Eleusine indica); conditions: Preemergence
How it was run: as §1

[10] = tested on: morningglory (Ipomoea coccinea); conditions: Preemergence
How it was run: as §1

[11] = tested on: common (oilseed) sunflower (Helianthus annuus); conditions: Preemergence, scale 0 to 100, 0 no effect, 100 complete control
How it was run: as §1

[12] = tested on: johnsongrass (Sorghum halepense); conditions: Preemergence
How it was run: as §1

[13] = 16 g ai/ha, scale 0 to 100, 0 no effect, 100 complete control
[14] = 62 g ai/ha, scale 0 to 100, 0 no effect, 100 complete control

Question: How did the “Plant response rating, Foxtail, Giant” value [1, 13] turn out when `Nc1nc(C2CC2)nc(C(=O)[O-])c1Cl.[Na+]` [Compound 77, 6-amino-5-chloro-2-cyclopropyl-4-pyrimidinecarboxylic acid monosodium salt] was run?
Answer: 0

Question: What about the pest or weed control at 31 g/ha ([1]; Setaria faberi, pre-emergence, 31 g ai/ha, scale 0 to 100, 0 no effect, 100 complete control, read-out: Plant response rating, Foxtail, Giant) of the same compound?
Answer: 0%

Question: What about the pest or weed control at 62 g/ha ([1]; Setaria faberi, pre-emergence, 62 g ai/ha, scale 0 to 100, 0 no effect, 100 complete control, read-out: Plant response rating, Foxtail, Giant) of the same compound?
Answer: 0%

Question: What about the pest or weed control at 125 g/ha ([1]; Setaria faberi, pre-emergence, 125 g ai/ha, scale 0 to 100, read-out: Plant response rating, Foxtail, Giant) of the same compound?
Answer: 0%

Question: What about the pest or weed control at 31 g/ha ([2]; Digitaria sanguinalis, pre-emergence, 31 g ai/ha, scale 0 to 100, 0 no effect, 100 complete control, read-out: Plant response rating, Crabgrass) of the same compound?
Answer: 0%

Question: And the pest or weed control at 62 g/ha ([2]; Digitaria sanguinalis, pre-emergence, 62 g ai/ha, scale 0 to 100, 0 no effect, 100 complete control, read-out: Plant response rating, Crabgrass)?
Answer: 0%

Question: What about the “Plant response rating, Crabgrass” value [2, 13] of the same compound?
Answer: 0

Question: What about the “Plant response rating, Crabgrass” value ([2]; 125 g ai/ha, scale 0 to 100) of the same compound?
Answer: 0

Question: What about the pest or weed control at 125 g/ha ([3]; Bassia scoparia, pre-emergence, 125 g ai/ha, scale 0 to 100, read-out: Plant response rating, Kochia) of the same compound?
Answer: 80%

Question: And the “Plant response rating, Kochia” value ([3]; 16 g ai/ha)?
Answer: 20

Question: What about the “Plant response rating, Kochia” value ([3]; 62 g ai/ha) of the same compound?
Answer: 50

Question: What about the “Plant response rating, Surinam Grass” value ([4]; 16 g ai/ha) of the same compound?
Answer: 0

Question: And the pest or weed control at 31 g/ha ([4]; Urochloa decumbens, pre-emergence, 31 g ai/ha, read-out: Plant response rating, Surinam Grass)?
Answer: 0%

Question: And the pest or weed control at 62 g/ha ([4]; Urochloa decumbens, pre-emergence, 62 g ai/ha, read-out: Plant response rating, Surinam Grass)?
Answer: 0%

Question: What about the pest or weed control at 31 g/ha ([5]; Eriochloa villosa, pre-emergence, 31 g ai/ha, scale 0 to 100, 0 no effect, 100 complete control, read-out: Plant response rating, Cupgrass, Woolly) of the same compound?
Answer: 0%

Question: What about the pest or weed control at 62 g/ha ([5]; Eriochloa villosa, pre-emergence, 62 g ai/ha, scale 0 to 100, 0 no effect, 100 complete control, read-out: Plant response rating, Cupgrass, Woolly) of the same compound?
Answer: 0%

Question: What about the pest or weed control at 125 g/ha ([5]; Eriochloa villosa, pre-emergence, 125 g ai/ha, scale 0 to 100, read-out: Plant response rating, Cupgrass, Woolly) of the same compound?
Answer: 0%

Question: What about the “Plant response rating, Cupgrass, Woolly” value [5, 13] of the same compound?
Answer: 0

Question: And the pest or weed control at 31 g/ha ([6]; Cynodon dactylon, pre-emergence, 31 g ai/ha, scale 0 to 100, 0 no effect, 100 complete control, read-out: Plant response rating, Bermudagrass)?
Answer: 0%

Question: And the pest or weed control at 62 g/ha ([6]; Cynodon dactylon, pre-emergence, 62 g ai/ha, scale 0 to 100, 0 no effect, 100 complete control, read-out: Plant response rating, Bermudagrass)?
Answer: 0%

Question: And the pest or weed control at 125 g/ha ([6]; Cynodon dactylon, pre-emergence, 125 g ai/ha, scale 0 to 100, read-out: Plant response rating, Bermudagrass)?
Answer: 0%

Question: And the “Plant response rating, Bermudagrass” value [6, 13]?
Answer: 0

Question: And the pest or weed control at 31 g/ha ([7]; Amaranthus retroflexus, pre-emergence, 31 g ai/ha, read-out: Plant response rating, Pigweed)?
Answer: 60%

Question: What about the pest or weed control at 62 g/ha ([7]; Amaranthus retroflexus, pre-emergence, 62 g ai/ha, read-out: Plant response rating, Pigweed) of the same compound?
Answer: 65%

Question: What about the “Plant response rating, Pigweed” value ([7]; 16 g ai/ha) of the same compound?
Answer: 60

Question: And the plant injury at 31 g/ha ([8]; Glycine max, pre-emergence, 31 g ai/ha, read-out: Plant response rating, Soybean)?
Answer: 100%

Question: And the plant injury at 62 g/ha ([8]; Glycine max, pre-emergence, 62 g ai/ha, read-out: Plant response rating, Soybean)?
Answer: 100%

Question: What about the “Plant response rating, Soybean” value ([8]; 16 g ai/ha) of the same compound?
Answer: 40

Question: And the pest or weed control at 31 g/ha ([9]; Eleusine indica, pre-emergence, 31 g ai/ha, scale 0 to 100, 0 no effect, 100 complete control, read-out: Plant response rating, Goosegrass)?
Answer: 0%

Question: What about the pest or weed control at 62 g/ha ([9]; Eleusine indica, pre-emergence, 62 g ai/ha, scale 0 to 100, 0 no effect, 100 complete control, read-out: Plant response rating, Goosegrass) of the same compound?
Answer: 0%

Question: What about the “Plant response rating, Goosegrass” value [9, 13] of the same compound?
Answer: 0

Question: What about the “Plant response rating, Goosegrass” value ([9]; 125 g ai/ha, scale 0 to 100) of the same compound?
Answer: 0

Question: And the “Plant response rating, Morningglory” value [10, 13]?
Answer: 5

Question: What about the “Plant response rating, Morningglory” value ([10]; 31 g ai/ha, scale 0 to 100, 0 no effect, 100 complete control) of the same compound?
Answer: 50

Question: What about the “Plant response rating, Morningglory” value [10, 14] of the same compound?
Answer: 50

Question: And the “Plant response rating, Morningglory” value ([10]; 125 g ai/ha, scale 0 to 100)?
Answer: 75

Question: What about the pest or weed control at 31 g/ha ([11]; Helianthus annuus, pre-emergence, 31 g ai/ha, read-out: Plant response rating, Sunflower) of the same compound?
Answer: 50%

Question: And the pest or weed control at 62 g/ha ([11]; Helianthus annuus, pre-emergence, 62 g ai/ha, read-out: Plant response rating, Sunflower)?
Answer: 100%

Question: And the “Plant response rating, Sunflower” value ([11]; 16 g ai/ha)?
Answer: 20

Question: What about the “Plant response rating, Johnsongrass” value [12, 13] of the same compound?
Answer: 0

Question: What about the “Plant response rating, Johnsongrass” value [12, 14] of the same compound?
Answer: 0

Question: And the “Plant response rating, Johnsongrass” value ([12]; 125 g ai/ha, scale 0 to 100)?
Answer: 0

Question: And the pest or weed control at 31 g/ha ([12]; Sorghum halepense, pre-emergence, 31 g ai/ha, scale 0 to 100, 0 no effect, 100 complete control, read-out: Plant response rating, Johnsongrass)?
Answer: 0%
